The text below walks through data of ChEMBL document CHEMBL4364346, “Structure optimization of a new class of PPARγ antagonists” (Bioorg Med Chem, 2019).

The IC50 is the midpoint of a concentration-inhibition curve.

SMILES strings stand for the structures. Active and inactive are the calls of the source. The rule behind the calls is not given here.

A short description of data set [1]: Metabolic stability in Sprague-Dawley rat liver microsomes assessed as remaining compound at […] incubated for 60 mins. The class given is ADME, Microsome. The conditions noted are these: read-out: Stability. (Liver microsomes are a subcellular fraction often used to study metabolism.)
Data set [2] concerns the target T1, Peroxisome proliferator-activated receptor gamma (Homo sapiens, UniProt P37231).
T1 sequence (P37231 whole entry): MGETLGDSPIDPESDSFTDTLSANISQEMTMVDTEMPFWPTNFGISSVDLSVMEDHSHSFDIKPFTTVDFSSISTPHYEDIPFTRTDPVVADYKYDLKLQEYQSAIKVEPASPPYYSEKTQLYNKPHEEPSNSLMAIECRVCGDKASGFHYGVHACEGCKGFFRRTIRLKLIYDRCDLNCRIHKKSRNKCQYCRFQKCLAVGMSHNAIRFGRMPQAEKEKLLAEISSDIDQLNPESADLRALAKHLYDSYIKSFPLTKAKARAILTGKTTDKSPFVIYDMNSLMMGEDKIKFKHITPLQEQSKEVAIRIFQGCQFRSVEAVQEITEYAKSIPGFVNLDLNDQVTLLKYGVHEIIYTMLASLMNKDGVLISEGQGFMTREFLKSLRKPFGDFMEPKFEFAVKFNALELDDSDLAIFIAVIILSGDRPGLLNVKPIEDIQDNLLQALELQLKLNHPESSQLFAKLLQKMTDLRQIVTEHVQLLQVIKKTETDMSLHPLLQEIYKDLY
Kind of data set: Antagonist actvity in sGFP-tagged PPARgamma LBD (unknown origin) assessed as inhibition of rosiglitazone-induced PPARgamma activation incubated for 1 hr in presence of CBP-1 cofactor peptide by HTRF based cofactor recruitment assay. In general terms: Time-resolved FRET reads energy transfer from a long-lived donor to a nearby acceptor.

Data set [3] addresses T2, Retinoic acid receptor RXR-alpha (Homo sapiens) (UniProt P19793).
T2 sequence (whole entry): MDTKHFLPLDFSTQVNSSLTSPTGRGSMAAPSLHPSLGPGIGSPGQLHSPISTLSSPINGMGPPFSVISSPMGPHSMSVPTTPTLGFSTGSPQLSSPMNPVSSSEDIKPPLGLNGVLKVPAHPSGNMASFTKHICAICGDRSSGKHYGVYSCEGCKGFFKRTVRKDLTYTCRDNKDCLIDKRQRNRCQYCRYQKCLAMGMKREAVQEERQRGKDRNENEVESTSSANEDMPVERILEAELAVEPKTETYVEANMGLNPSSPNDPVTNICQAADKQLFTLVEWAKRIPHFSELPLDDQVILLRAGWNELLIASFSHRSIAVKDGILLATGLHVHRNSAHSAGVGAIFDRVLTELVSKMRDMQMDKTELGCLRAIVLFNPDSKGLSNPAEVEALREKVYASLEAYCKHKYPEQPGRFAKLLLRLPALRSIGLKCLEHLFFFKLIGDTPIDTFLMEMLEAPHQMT
The experiment in a line: Antagonist activity at recombinant human pFA-CMV fused RXRalpha LBD transfected in HEK293T cells assessed as reduction in bexarotene-induced RXRalpha activation at 1 uM incubated for 12 to 14 hrs by dual glo luciferase reporter gene assay. It counts as cell-based.

The target in data set [4] is T3, Bile acid receptor (Homo sapiens) (UniProt Q96RI1).
T3 sequence (whole entry): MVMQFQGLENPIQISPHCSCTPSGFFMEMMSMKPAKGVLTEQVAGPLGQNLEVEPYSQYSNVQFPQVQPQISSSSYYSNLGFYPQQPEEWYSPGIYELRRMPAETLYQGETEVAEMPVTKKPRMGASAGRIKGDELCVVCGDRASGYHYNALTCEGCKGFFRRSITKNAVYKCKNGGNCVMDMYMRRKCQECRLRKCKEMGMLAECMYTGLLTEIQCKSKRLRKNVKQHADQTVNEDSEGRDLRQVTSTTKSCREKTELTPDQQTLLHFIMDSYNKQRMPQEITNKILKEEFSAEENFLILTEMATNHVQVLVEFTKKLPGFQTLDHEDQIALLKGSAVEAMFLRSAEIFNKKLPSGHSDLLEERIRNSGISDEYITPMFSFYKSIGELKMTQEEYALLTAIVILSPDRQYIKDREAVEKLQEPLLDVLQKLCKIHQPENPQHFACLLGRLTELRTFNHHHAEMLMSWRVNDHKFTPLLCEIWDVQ
Kind of data set: Antagonist activity at recombinant human pFA-CMV fused FXR LBD transfected in HEK293T cells assessed as reduction in GW4064-induced FXR activation at 1 uM incubated for 12 to 14 hrs by dual glo luciferase reporter gene assay. It counts as cell-based.

In data set [5] the target is T4, Nuclear receptor subfamily 1 group I member 3 (Homo sapiens, UniProt Q14994).
T4 sequence (Q14994 whole entry): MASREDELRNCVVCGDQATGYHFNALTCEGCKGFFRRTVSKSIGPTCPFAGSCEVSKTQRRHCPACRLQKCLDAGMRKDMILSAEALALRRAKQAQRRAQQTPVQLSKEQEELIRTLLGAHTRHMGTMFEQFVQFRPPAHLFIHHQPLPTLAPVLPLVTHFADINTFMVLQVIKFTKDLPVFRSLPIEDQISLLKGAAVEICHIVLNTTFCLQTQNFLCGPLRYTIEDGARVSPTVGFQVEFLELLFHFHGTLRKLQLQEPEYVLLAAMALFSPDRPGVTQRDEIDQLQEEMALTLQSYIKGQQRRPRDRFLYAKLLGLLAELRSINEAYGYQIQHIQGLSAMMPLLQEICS
Kind of data set: Antagonist activity at recombinant human pFA-CMV fused CAR LBD transfected in HEK293T cells assessed as reduction in CITCO-induced CAR activation at 1 uM incubated for 12 to 14 hrs by dual glo luciferase reporter gene assay. It counts as cell-based. (Reporter assays use an easily measured gene product as a stand-in for the process of interest.)

Data set [6] deals with Oxysterols receptor LXR-alpha (Homo sapiens) (UniProt Q13133). Kind of data set: Agonist activity at recombinant human pFA-CMV fused LXRalpha LBD transfected in HEK293T cells assessed as LXRalpha activation at 1 uM incubated for 12 to 14 hrs by dual glo luciferase reporter gene assay.
Chain of Oxysterols receptor LXR-alpha (Homo sapiens) (Q13133 whole entry, looked up, the tested form may be a part): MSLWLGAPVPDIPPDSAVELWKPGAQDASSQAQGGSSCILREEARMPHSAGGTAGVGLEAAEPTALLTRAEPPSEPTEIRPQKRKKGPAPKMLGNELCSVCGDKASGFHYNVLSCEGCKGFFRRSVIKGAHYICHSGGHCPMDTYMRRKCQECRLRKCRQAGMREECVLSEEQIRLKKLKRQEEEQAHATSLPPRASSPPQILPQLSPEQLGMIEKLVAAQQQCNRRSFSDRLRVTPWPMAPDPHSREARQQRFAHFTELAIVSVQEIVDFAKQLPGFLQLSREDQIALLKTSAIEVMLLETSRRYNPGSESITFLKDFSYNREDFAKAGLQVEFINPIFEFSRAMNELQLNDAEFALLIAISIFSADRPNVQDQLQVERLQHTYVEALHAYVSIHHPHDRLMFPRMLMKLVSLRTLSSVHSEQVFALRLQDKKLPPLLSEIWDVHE

In the case of `CCC/C(=C\c1cc(OCc2ccc3nc(C(F)(F)F)cc(OC)c3c2)ccc1OCCN1CCN(C)CC1)C(=O)O`, the remaining at 1 h in data set [1] amounted to 81%. For the same compound, in data set [2], the half-inhibitory concentration (IC50) was 6.4 µM. Further, the outcome in data set [3], in data set [4] and in data set [6] was inactive. The Activity result in data set [5] is “Not Active”.
Take `CCC/C(=C\c1cc(OCc2ccc3nc(C(F)(F)F)cc(OC)c3c2)ccc1OCC1CCN(C)CC1)C(=O)O`: the remaining at 1 h in data set [1] came to 95%. Further, the outcome in data set [3], in data set [4] and in data set [6] was inactive. In addition, in data set [5], the Activity result is reported as “Not Active”.
